Active and inactive are the calls of the source.
Tests used:
[1] = target: SWI/SNF-related matrix-associated actin-dependent regulator of chromatin subfamily A member 2 (Homo sapiens, UniProt P51531); test: Luminescence-based cell-based high throughput dose response assay to identify activators of the function of SWI/SNF related, matrix associated, actin dependent regulator of chromatin, subfamily a, member 2 (SMARCA2, BRM).; assay type: functional
[2] = Counterscreen for activators of the function of SWI/SNF related, matrix associated, actin dependent regulator of chromatin, subfamily a, member 2 (SMARCA2, BRM): Luminescence-based cell-based high throughput dose response assay to identify non-selective compounds using the VP16 reporter assay.; assay type: functional
[3] = cells; assay type: functional, cell-based
[4] = cells; assay type: functional, cell-based; remark: listed apart in the source
[5] = target: Mitogen-activated protein kinase 10 (Homo sapiens, UniProt P53779); test: Dose response biochemical screening assay for inhibitors of c-Jun N-Terminal Kinase 3 (JNK3). [Related pubchem assays: 746 ]
[6] = target: T1, Estrogen receptor beta (Homo sapiens, UniProt Q92731);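 note: recombinant ER-beta bound to coactivator SRC1 peptide in presence of estradiol agonist; inhibitors block coactivator peptide binding and lower the FRET signal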
[7] = target: T2, Estrogen receptor (Homo sapiens, UniProt P03372);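 note: potency for inhibiting coactivator peptide recruitment to the receptor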
T2 sequence (P03372 whole entry): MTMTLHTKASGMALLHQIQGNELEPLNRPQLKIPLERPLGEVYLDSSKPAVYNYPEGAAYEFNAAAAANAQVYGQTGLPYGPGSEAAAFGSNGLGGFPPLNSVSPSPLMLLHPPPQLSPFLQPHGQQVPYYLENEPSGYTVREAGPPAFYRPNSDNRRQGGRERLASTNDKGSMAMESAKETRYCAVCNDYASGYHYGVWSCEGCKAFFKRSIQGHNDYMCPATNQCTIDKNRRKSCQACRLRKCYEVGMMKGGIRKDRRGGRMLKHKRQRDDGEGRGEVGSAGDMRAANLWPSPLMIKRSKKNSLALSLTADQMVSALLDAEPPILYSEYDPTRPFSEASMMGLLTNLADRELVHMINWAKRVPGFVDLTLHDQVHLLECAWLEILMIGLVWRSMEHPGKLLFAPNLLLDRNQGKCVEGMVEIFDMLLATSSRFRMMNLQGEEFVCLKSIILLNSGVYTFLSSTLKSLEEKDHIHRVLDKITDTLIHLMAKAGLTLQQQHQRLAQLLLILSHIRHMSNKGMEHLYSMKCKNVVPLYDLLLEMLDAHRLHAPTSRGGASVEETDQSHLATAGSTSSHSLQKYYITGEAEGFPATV

[8] = target: T1, Estrogen receptor beta; test: blockers of SRC-3 recruitment to ERβ – biochemical, ELISA, streptavidin-HRP readout, orthogonal assay, confirmation (AID 1060)
[9] = Luminescence Cell-Based Dose Response HTS to Identify Inhibitors of 5'UTR Stem-Loop Driven Prion Protein mRNA Translation in H4 Neuroglioblastoma Cells. [Related pubchem assays: 1827 (Project Summary), 1813 (Primary HTS)]; assay type: functional
[10] = luciferase reporter signal suppression in cells – H4 neuroglioma cells, luminescence, dose response (AID 1990); assay type: functional, cell-based
[11] = alpha-synuclein stem-loop luciferase translation blockers – H4 neuroglioma cells, luminescence, confirmation (AID 1988); assay type: functional, cell-based
[12] = HEK-293T cell viability reduction – luminescence, B-cell screen hits, cytotoxicity control for BCR NF-kB inhibitor project, dose response (AID 489021); assay type: functional, cell-based;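 note: HEK-293T cells carrying an NF-kB luciferase reporter; cells exposed to compound for about 14 hours before viability readout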
[13] = target: Voltage-dependent T-type calcium channel subunit alpha-1H (Homo sapiens, UniProt O95180); assay type: functional;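 note: channel activity triggered by adding a high calcium stimulation buffer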
[14] = target: Paired box protein Pax-8 (Homo sapiens, UniProt Q06710); test: PAX8 transcriptional activity inhibition in RMG-I – RMG-I cells, luciferase, cherry-pick, dose response (AID 687027); assay type: functional, cell-based;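 note: luciferase reporter driven by Pax8 target thyroperoxidase promoter measured by SteadyGlo luminescence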
[15] = general cell-killing toxicity readout – plate reader, dry powder samples, cytotoxicity control for PAX8 inhibitor project, dose response (AID 743021); assay type: functional, cell-based
[16] = target: Eukaryotic translation initiation factor 4E (Mus musculus, UniProt P63073); test: blockers of eIF4G binding by eIF4E – biochemical, TR-FRET, dose response (AID 855); assay type: functional;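 note: potency for disrupting eIF4E binding to eIF4GI seen as loss of FRET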
[17] = activation of miR-122 Renilla sensor silencing – cell-based, Huh7 psiCHECK-miR122, Renilla luciferase, cherry-picked, dose response (AID 651956); assay type: functional;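 note: huh7 hepatoma cells stably carrying a psiCHECK-2 miR-122 sensor plasmid; renilla luciferase signal reporting endogenous miR-122 activity after 48 h compound exposure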
[18] = general mammalian cell viability loss – activator set, cherry-pick, cytotoxicity control for miR-122 modulator project, dose response (AID 720690); assay type: functional, cell-based;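 note: HEK293T human cells scored for general mammalian cytotoxicity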
[19] = toxicity toward HepG2 liver cells – cell-based, plate reader, cherry-pick, antagonist series, cytotoxicity control, dose response (AID 743416); assay type: functional
[20] = A549 cell cytotoxicity, dose response, cytotoxicity control, plate reader, cherry-pick, antagonist series (AID 743412); assay type: functional, cell-based

Mitogen-activated protein kinase 10, sequence (P53779 whole entry): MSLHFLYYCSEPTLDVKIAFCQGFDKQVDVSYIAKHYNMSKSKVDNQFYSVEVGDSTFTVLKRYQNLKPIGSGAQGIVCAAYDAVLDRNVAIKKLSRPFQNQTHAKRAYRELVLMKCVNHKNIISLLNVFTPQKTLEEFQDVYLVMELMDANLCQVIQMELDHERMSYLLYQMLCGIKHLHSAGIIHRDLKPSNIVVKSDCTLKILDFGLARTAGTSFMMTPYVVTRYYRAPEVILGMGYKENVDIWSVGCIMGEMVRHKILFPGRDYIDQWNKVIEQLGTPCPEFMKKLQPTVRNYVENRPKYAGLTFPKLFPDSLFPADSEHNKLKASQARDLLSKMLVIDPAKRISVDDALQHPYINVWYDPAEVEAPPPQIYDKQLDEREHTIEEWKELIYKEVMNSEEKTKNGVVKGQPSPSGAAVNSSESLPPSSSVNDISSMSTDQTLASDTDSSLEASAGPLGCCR
SWI/SNF-related matrix-associated actin-dependent regulator of chromatin subfamily A member 2, sequence (P51531 whole entry): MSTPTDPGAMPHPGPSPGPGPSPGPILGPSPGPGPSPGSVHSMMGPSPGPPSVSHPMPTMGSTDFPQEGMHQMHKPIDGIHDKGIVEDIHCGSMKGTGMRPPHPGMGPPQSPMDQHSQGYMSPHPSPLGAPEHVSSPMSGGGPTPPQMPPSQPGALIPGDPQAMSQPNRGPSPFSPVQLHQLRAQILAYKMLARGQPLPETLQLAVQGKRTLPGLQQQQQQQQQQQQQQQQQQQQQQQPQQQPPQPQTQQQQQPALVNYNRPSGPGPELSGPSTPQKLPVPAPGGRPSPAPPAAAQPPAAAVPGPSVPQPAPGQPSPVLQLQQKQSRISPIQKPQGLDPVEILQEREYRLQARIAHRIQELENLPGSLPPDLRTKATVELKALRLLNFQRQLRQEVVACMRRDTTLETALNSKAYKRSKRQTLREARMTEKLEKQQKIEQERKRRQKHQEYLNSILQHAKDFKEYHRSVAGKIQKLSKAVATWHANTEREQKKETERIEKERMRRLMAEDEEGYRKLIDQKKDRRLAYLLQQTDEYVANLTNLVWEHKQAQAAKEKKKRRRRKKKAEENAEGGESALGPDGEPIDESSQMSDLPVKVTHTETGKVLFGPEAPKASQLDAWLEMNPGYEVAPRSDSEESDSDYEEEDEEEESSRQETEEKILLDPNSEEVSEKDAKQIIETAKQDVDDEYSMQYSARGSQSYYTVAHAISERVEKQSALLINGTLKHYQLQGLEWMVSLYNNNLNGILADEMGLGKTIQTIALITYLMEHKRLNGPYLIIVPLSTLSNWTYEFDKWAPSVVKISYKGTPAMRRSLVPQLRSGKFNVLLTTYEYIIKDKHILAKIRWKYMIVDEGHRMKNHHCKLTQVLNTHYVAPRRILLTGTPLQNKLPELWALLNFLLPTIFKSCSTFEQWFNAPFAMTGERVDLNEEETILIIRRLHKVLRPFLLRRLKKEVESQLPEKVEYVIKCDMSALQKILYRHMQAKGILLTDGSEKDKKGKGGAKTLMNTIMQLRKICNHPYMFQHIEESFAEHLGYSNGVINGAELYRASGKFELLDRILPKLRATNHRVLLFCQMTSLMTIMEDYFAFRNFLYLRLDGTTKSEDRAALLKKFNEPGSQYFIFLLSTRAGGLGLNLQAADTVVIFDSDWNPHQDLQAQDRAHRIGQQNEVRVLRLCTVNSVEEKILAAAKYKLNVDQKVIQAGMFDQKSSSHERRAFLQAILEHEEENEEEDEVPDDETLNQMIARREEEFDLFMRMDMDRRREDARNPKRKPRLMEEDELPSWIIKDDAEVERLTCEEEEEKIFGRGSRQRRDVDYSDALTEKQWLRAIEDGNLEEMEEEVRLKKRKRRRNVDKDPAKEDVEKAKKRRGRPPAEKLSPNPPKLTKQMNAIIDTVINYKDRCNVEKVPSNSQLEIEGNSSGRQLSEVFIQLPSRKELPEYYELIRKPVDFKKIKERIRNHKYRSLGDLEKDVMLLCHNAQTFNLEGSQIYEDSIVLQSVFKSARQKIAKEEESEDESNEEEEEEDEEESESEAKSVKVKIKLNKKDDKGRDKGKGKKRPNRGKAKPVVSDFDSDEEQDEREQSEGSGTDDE
T1 sequence (Q92731 whole entry): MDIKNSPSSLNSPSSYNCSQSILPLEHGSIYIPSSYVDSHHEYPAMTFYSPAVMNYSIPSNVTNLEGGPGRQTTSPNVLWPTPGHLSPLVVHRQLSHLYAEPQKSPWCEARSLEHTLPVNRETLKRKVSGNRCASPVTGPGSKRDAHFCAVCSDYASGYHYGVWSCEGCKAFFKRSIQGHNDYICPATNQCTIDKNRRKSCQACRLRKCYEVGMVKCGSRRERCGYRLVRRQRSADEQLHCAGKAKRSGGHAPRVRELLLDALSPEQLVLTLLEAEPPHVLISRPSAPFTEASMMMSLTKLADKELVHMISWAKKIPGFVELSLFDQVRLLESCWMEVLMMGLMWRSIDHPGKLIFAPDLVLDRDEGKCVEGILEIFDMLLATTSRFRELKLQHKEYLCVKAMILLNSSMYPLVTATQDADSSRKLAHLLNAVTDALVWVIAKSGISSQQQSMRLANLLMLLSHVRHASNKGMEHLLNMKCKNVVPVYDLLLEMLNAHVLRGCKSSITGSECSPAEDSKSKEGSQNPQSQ
Paired box protein Pax-8, sequence (Q06710 whole entry): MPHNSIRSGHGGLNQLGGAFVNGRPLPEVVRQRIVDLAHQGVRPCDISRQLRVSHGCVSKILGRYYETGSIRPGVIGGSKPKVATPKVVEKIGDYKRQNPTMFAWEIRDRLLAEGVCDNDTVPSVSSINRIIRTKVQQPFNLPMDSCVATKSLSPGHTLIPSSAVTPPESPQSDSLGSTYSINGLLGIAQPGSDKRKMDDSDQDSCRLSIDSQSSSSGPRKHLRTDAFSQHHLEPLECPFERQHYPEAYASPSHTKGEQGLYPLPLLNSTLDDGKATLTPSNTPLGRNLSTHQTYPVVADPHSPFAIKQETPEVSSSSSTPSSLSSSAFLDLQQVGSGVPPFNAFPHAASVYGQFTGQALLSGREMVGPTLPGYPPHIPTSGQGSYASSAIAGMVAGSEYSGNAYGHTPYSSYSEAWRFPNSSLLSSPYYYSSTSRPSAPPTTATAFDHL
Eukaryotic translation initiation factor 4E, sequence (P63073 whole entry): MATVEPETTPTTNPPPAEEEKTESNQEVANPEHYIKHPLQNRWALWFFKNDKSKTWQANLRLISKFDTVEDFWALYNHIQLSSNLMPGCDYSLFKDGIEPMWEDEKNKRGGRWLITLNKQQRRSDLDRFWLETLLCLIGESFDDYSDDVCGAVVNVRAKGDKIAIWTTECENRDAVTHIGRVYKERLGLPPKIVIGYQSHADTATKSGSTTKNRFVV

Cc1nccc(-c2cc(-c3ccc(Cl)cc3Cl)no2)n1
EC50 [1]: > 91.2 µM (inactive) | EC50 [2]: > 91.2 µM (inactive)

Cc1c(C#N)c(O)n(CCO)c(=O)c1CN1CCCC(C)C1 (configuration not stated)
EC50 [3]: > 29.9 µM (inactive) | IC50 [4]: > 29.9 µM (inactive)

CN(c1ccc(C(=O)Nc2nccs2)cc1)S(=O)(=O)c1ccccc1
IC50 [5]: 46.9 µM (not active)

c1ccc2[nH]c3c4ccccc4nc-3nc2c1
IC50 [5]: 13.9 µM (not active)

CCn1nnc(NC(=O)CSc2ccc(Cl)cc2)n1
IC50 [6]: 4.65 µM (active) | IC50 [7]: 9.27 µM (active) | IC50 [8]: > 109 µM (not active)

CC(=O)c1c(COC(=O)c2ccco2)nc2ccccc2[n+]1[O-]
EC50 [9]: > 120 µM (not active) | IC50 [6]: 10.8 µM (active) | EC50 [10]: > 120 µM (not active) | IC50 [7]: 29.2 µM (active) | EC50 [11]: > 120 µM (not active) | IC50 [8]: < 77 µM (not active)

COC(=O)c1[nH]c2ccc(C)cc2c1NC(=O)Nc1ccccc1OC
IC50 [12]: > 80 µM (inactive)

Cc1nnc(SCc2nc3ccccc3s2)n1N
EC50 [1]: > 91.1 µM (inactive) | EC50 [2]: > 91.1 µM (inactive)

CS(=O)(=O)N1CCN(c2ccccc2NC(=O)CSc2ccc(Cl)cc2)CC1
IC50 [5]: 90.5 µM (not active) | EC50 [13]: 7.39 µM (active)

Cc1ccc(Cl)cc1N1CCN(C(=O)c2noc(C)c2[N+](=O)[O-])CC1
AC50 [14]: 6.41 µM (active) | AC50 [15]: 43.2 µM (active)

Cn1c(C(C)(O)C(O)c2ccccc2)nc2ccccc21 (configuration not stated)
IC50 [16]: > 64 µM (inactive)

COc1cccc(CNC(=O)COC(=O)c2nc(Cl)c(Cl)c(Cl)c2Cl)c1
EC50 [1]: > 91.2 µM (inactive) | EC50 [2]: > 91.2 µM (inactive)

CC(=O)c1cccc(S(=O)(=O)NCC2CCCCC2)c1
AC50 [17]: 5.36 µM (active)

O=C1NC2=C(C(=O)c3ccccc32)C(c2ccccc2)N1 (configuration not stated)
IC50 [5]: 38.3 µM (not active)

CC(C)(C)OC(=O)N1CCN(c2ccc(NC(=O)Cn3nnc(-c4ccccc4)n3)cc2)CC1
IC50 [6]: 6.06 µM (active) | IC50 [8]: 2.7 µM (not active)

CCOc1ccc(NC(=O)CCCc2cc(-c3ccc(OCC)cc3)on2)cc1
IC50 [12]: > 80 µM (inactive)

CCC(=O)N(C)C[C@H]1Oc2cc(C#CC3CCCCC3)ccc2S(=O)(=O)N([C@@H](C)CO)C[C@H]1C
AC50 [18]: 27.7 µM (active) | AC50 [17]: 7.88 µM (active)

CCN(C[C@@H]1N[C@@H](CO)[C@H]1c1ccc(-c2cccc(F)c2)cc1)C(=O)CN(C)C
AC50 [18]: 25.7 µM (active) | AC50 [17]: 13 µM (active)

N#C[C@H]1[C@@H](c2ccc(C3=CCCCC3)cc2)[C@H](CO)N1C(=O)c1ccccn1
AC50 [19]: 34.2 µM (active)

Cc1ccc(S(=O)(=O)Nc2ccc3c(c2)C(=O)N([C@H](C)CO)C[C@@H](C)[C@H](CN(C)S(=O)(=O)c2cccs2)OCCCC[C@@H](C)O3)cc1
AC50 [19]: > 52 µM (inactive) | AC50 [20]: 32.1 µM (active)
